Assay results as given in patent publication US12508245B2, “Co-therapies including a metastasis inhibitor” (priority 2017, dated 2025).

What was measured:
[1] = test system: 4T1 mouse breast tumor cells
Experimental: Female BALB/c mice (6-8 week old) were purchased from Charles River. 4T1 tumor cells (1×10^5) were injected subcutaneously into the abdominal mammary gland area of mice using 0.1 ml of a single-cell suspension in PBS on Day 0 as previously described. […] Starting on Day 8, when the tumors averaged about ˜4-5 mm in diameter, Compound A or control solvent were given once or twice every day by oral gavage at 10, 30, 100 or 300 mg/kg per mouse until Day 27. On Day 28, the mice were sacrificed. […] Numbers of metastatic 4T1 cells in lungs were determined by the clonogenic assay. In brief, lungs were removed from each mouse, finely minced and digested in 5 ml of enzyme cocktail containing 1×PBS and 1 mg/ml collagenase type IV for 2 hours at 37° C. on a platform rocker. After incubation, samples were filtered through 70-μm nylon cell strainers and washed twice with PBS. Resulting cells were suspended, plated with a series of dilutions in 10 cm tissue culture dishes in DMEM medium containing 60 μM thioguanine for clonogenic growth. As 4T1 tumor cells are resistant to 6-thioguanine, metastasized tumor cells formed foci after 14 days, at which time they were fixed with 4% paraformaldehyde and stained with crystal violet staining solution for counting. […]

[2] = Pharmacokinetic study of Compound A in mice: stability of the plasma samples (LC-MS/MS); assay type: in vitro ADME; details: mouse plasma samples, K2 EDTA
Experimental: Concentrations of Compound A in plasma were determined using high performance liquid chromatography with tandem mass spectrometry (LC MS/MS). All blood samples were transferred into commercial tube containing Potassium (K2) EDTA and processed for plasma. Samples were centrifuged (3000×g for 10 minutes at 2 to 8° C.) within one hour of collection. The assays used a Sciex API 4000 detector and nifedipine as an internal standard. The calibration ranges for Compound A for were 5.00 to 5000 ng/mL. The plasma concentration of Compound A in mice was subjected to a non-compartmental pharmacokinetic analysis by using the Phoenix WinNonlin software (version 6.3, Pharsight, Mountain View, CA). The nominal dose levels and nominal sampling times were used in the calculation of all pharmacokinetic parameters. The linear/log trapezoidal rule was applied in obtaining the PK parameters.

[3] = test system: MDA-MB-231 human breast tumor cells
Experimental: MDA-MB-231 cells (subclone LM2) (1×10^5) suspended in PBS were injected subcutaneously into the abdominal mammary gland area of mice on day 1 as previously described. […] On the first day of the ninth week, the mice were killed. […] Numbers of metastatic MDA-MB-231 cells in lungs were determined by the clonogenic assay. In brief, lungs were removed from each mouse once sacrificed, finely minced and digested in 5 ml of enzyme cocktail containing 1×PBS and 1 mg/ml collagenase type IV for 2 h at 37° C. on a platform rocker. After incubation, samples were filtered through 70-μm nylon cell strainers and washed twice with PBS. Resulting cells were suspended, plated with a series of dilutions in 10 cm tissue culture dishes in medium containing 2.0 μg/ml puromycin for clonogenic growth. As these MBA-MB-231 tumor cells were stably transfected with the vector pSuper-puro, metastasized tumor cells formed foci after 14 days, at which time they were fixed with 4% paraformaldehyde and stained with crystal violet staining solution for counting.

MDA-MB-231 tumor cells = test: Overall survival of NSG mice implanted with MDA-MB-231 tumor cells, combination treatment with chemotherapy; assay type: in vivo, human
Experimental: Vehicle solvent was given to control mice once a day for 6 days every week. Starting on day 15, doxorubicin hydrochloride (Sigma) (2 mg/kg) and cyclophosphamide monohydrate (Sigma) (60 mg/kg) were given to mice once a week for four weeks. Primary tumors were removed on day 29. Death of mice was used as the endpoint.

4T1 breast tumor cells = test: Combination treatment with Compound A and immunotherapy, 4T1 tumor-bearing BALB/c mice, overall survival; assay type: in vivo, mouse
Experimental: Female BALB/c mice (6- to 8-week-old) were purchased from Charles River Laboratories. […] Mol Oncol 10, 966-980 (2016). Starting on day 8 or 22, Compound A was given to mice once every day for 5 days a week by oral gavage at 100 mg/kg per mouse. Tumor-bearing mice were given 10 mg/kg anti-PD-1 and 10 mg/kg anti-CTLA-4 antibodies i.p. on day 11, 13, 15, and 17 as previously described. Kim, K. et al. Eradication of metastatic mouse cancers resistant to immune checkpoint blockade by suppression of myeloid-derived cells. Proc Natl Acad Sci USA 111, 11774-11779 (2014). Control group mice were given control mouse IgG at the same time. Primary tumor volume was calculated as length×width^2×π/6.

SMILES: Cc1occc1C(=O)Nc1nn(Cc2ccc(C(F)(F)F)cc2)c2ccccc12 [NP-G2-044]
- metastasis to the lung, single agent ([1]; 4T1 cells implanted into the mammary fat pad (FIG. 1f-g)): blocks tumor metastasis
- tolerability of the dosage regimen ([1]; mouse, in vivo): well tolerated with no signs of overt toxicity
- stability after freeze-thaw, and during storage, processing and analysis [2]: stable
- metastasis to the lung, single agent ([3]; MDA-MB-231 cells implanted into the mammary fat pad, QD or BID (FIG. 1c-e)): blocks tumor metastasis
- tolerability of the dosage regimen ([3]; in vivo): well tolerated with no signs of overt toxicity
- overall survival of tumor-bearing mice (MDA-MB-231 tumor cells; NSG mice, MDA-MB-231, primary tumors removed on Day 29, NP-G2-044 started on Day 1, chemotherapy for 4 weeks, death as endpoint (FIG. 2b)): increases overall survival
- overall survival in the combination therapies, earlier versus late start of NP-G2-044 (MDA-MB-231 tumor cells; with chemotherapy, NP-G2-044 starting on day 1 or 8 compared with day 15 (FIG. 2d)): had better effect than late treatment
- overall survival of tumor-bearing mice (4T1 breast tumor cells; 4T1 tumor-bearing mice, anti-PD-1 and anti-CTLA-4 antibodies, death as endpoint (FIG. 3c)): increased the overall survival
- immunotherapy response (overall survival) in combination therapy, early treatment (4T1 breast tumor cells; NP-G2-044 starting on day 8, with anti-PD-1 and anti-CTLA-4 antibodies (FIG. 3e)): boosted the immunotherapy response
- immunotherapy response (overall survival) in combination therapy, late treatment (4T1 breast tumor cells; NP-G2-044 starting on day 22, with anti-PD-1 and anti-CTLA-4 antibodies (FIG. 3e)): boosted the immunotherapy response
